Experimental data as given in BindingDB's records for doi:10.1111/cbdd.12575 (Universidade De Lisboa, 2015).

Target: T1, Nitric oxide synthase, inducible (Mus musculus, UniProt P29477)
T1 sequence (P29477 whole entry): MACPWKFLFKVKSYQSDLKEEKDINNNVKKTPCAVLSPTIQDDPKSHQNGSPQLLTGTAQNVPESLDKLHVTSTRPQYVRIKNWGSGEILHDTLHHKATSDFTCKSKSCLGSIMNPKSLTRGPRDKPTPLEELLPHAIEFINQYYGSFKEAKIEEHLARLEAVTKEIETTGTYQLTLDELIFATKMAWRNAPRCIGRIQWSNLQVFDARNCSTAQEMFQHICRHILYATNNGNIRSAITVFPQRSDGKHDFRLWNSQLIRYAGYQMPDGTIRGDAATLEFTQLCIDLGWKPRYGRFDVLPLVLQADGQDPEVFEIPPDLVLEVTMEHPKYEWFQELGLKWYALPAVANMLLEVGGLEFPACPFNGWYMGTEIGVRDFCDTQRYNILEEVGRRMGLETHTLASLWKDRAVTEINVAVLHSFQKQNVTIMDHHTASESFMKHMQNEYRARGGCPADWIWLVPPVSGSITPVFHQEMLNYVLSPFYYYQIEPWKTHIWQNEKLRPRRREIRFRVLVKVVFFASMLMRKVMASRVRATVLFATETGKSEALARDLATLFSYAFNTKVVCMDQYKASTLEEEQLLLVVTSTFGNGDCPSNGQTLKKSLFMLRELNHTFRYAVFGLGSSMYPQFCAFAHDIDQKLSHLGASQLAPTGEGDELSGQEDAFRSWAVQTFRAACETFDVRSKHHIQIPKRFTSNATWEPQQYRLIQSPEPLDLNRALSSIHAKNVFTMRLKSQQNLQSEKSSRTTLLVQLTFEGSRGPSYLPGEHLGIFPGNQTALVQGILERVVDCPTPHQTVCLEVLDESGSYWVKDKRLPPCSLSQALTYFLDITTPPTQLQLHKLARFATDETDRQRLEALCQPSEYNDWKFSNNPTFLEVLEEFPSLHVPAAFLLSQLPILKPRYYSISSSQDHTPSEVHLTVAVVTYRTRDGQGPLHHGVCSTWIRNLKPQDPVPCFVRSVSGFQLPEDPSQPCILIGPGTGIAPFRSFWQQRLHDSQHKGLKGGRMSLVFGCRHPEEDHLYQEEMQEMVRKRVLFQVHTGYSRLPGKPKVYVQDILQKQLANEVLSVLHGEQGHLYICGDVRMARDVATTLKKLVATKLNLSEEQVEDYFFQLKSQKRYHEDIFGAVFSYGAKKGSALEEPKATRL
Assay: iNOS Activity Assay
Description: The iNOS activity assay was based on the method of hemoglobin assay previously described with slight modifications. The activity of the enzyme was determined spectrophotometrically by monitoring the NO-mediated conversion of oxyhemoglobin to methemoglobin at 401 and 421 nm.

Row | Compound | Ki
1 | N=C(NCCCC12C[NH][Re]([CH]=O)([CH]=O)([CH]=O)([NH]1)[O]C2=O)N[N+](=O)[O-] (stereo not given) [1,1,1-triformyl-4-(3-{[iminiumyl(nitroamino)methyl]amino}propyl)-3-oxo-2-oxa-6,7-diaza-1-rhenabicyclo[2.2.1]heptane-6,7-diium (Re4)] | 241 µM
2 | N=C(NCCCC(N)(CN)C(=O)O)N[N+](=O)[O-] (stereo not given) [2-Amino-2-(aminomethyl)-5-(3-nitroguanidino)pentanoic acid (L4)] | 29.4 µM
3 | NCC(N)(CCCC(=O)NC(CCCNC(N)=N[N+](=O)[O-])C(=O)O)C(=O)O (stereo not given) [2-Amino-2-(aminomethyl)-6-(1-carboxy-4-(2-nitroguanidino)butylamino)-6-oxohexanoic acid (L5)] | 6.2 µM
4 | NCC(N)(CCCCCCC(=O)NC(CCCNC(N)=N[N+](=O)[O-])C(=O)O)C(=O)O (stereo not given) [2-Amino-2-(aminomethyl)-9-(1-carboxy-4-(2-nitroguanidino)butylamino)-9-oxononanoic acid (L6)] | 760 µM
5 | N=C(NCCCC(NC(=O)CCCC12C[NH][Re]([CH]=O)([CH]=O)([CH]=O)([NH]1)[O]C2=O)C(=O)O)N[N+](=O)[O-] (stereo not given) [4-{3-[(1-carboxylato-4-{[iminiumyl(nitroamino)methyl]amino}butyl)carbamoyl]propyl}-1,1,1-triformyl-3-oxo-2-oxa-6,7-diaza-1-rhenabicyclo[2.2.1]heptane-6,7-diium (Re5)] | 57.2 µM
